Results: patent publication US10576145B2, “CD200 inhibitors and methods of use thereof” (REGENTS OF THE UNIVERSITY OF MINNESOTA, priority 2014, dated 2020)
“Also recorded” adds a separate entry of the source.

Columns and labels:
[1] = tested on: naïve splenocytes pulsed with purified CD200 protein; experiment: Naive splenocytes pulsed with purified CD200 +/- CD200R antagonist: MDSC expansion and arginase-I; type: cell-based
Procedure: FIGS. 17A-17B. CD200R antagonist blocks MDSC expansion and tumor suppressive effects. (FIG. 17A) Murine glioma GL261 was incubated with naïve splenocytes in a trans-well plate+/−CD200R antagonist and analyzed for MDSC expansion and cytokine production. (FIG. 17B) Naïve splenocytes were pulsed with purified CD200+/−CD200R antagonist and analyzed for MDSC expansion and arginase-I production. Error bars are ±SEM, statistical significance was determined by one-way ANOVA, post hoc analysis by Dunn's multiple comparison test, *p<0.05, ** p<0.001.
Spleens were harvested homogenized in RPMI media containing 10% FBS, penicillin/streptomycin (100 U/ml), and 0.1 mg/ml Normocin (Invivogen). Cells were then filtered using a 70-micron filter, centrifuged, and resuspended in 5 ml of Ammonium-Chloride-Potassium buffer and incubated for 5 minutes at room temperature to lyse RBCs. […] Following 24 h incubation, CD200R antagonist peptide 6059 was added to the appropriate wells, incubated for 20 min prior to adding 5 μg of purified CD200 protein (Sino Biological) and incubated for a further 72 hrs, harvested and analyzed for anti-CD11b and […] population using an LSR II flow cytometer. […] Following incubation, 50 μl culture supernatant was analyzed for IFN-γ using a flow cytometric bead array according to the manufacturer's protocol (BD Biosciences). […]

EMT6 tumor bearing mice = experiment: EMT6 breast carcinoma model: tumor lysate + CpG +/- competitive inhibitor, survival; type: in vivo, BALB/c mice
Procedure: FIG. 6. Percent survival of mice inoculated with 1×10^6 EMT6 cells. To determine if our competitive inhibitors worked in other tumor models, mice were inoculated in the fat pad with 1×10^6 EMT6 cells. Specifically, mice were vaccinated with 65 μg of EMT6 tumor lysates+50 μg of adjuvant CpG and 50 μg of different completive inhibitors (6059, 4004, 4013 and 6061) and monitored for survival. Saline and tumor lysate+adjuvant CpG were used as controls.
FIGS. 19A-19B. Select CD200 antagonists enhance survival. (FIG. 19A) EMT6 tumor bearing mice were vaccinated with tumor lysate, CpG+/−CD200 antagonist 4004, 4013 or 6059. […] Log-rank analysis was used for survival.
Tumors were implanted into female C57BL/6 mice (6-8 wk old) (Jackson Laboratory) and maintained in a pathogen-free facility according to the guidelines of the University of Minnesota Animal Care and Use Committee. The GL261 orthotopic transplant model was established in C57BL/6 (B6) mice by inoculation with 15,000 GL261-Luc^+ cells in 1 μl of saline. Tumors were implanted stereotactically into the right striatum; coordinates were 2.5 mm lateral, 0.5 mm anterior of bregma, and 3 mm deep from the cortical surface of the brain^19. Tumor burden was determined by bioluminescent imaging. Light emitted from the tumors was quantified using Living Image software (Xenogen) and expressed as photons per second per centimeter squared per steradian (p/s/cm^2/sr). GL261 cells for tumor lysate vaccines were cultured in neural stem cell media consisting of DMEM/F12 (1:1) with L-glutamine, sodium bicarbonate, penicillin/streptomycin (100 U/ml), B27 and N2 supplements (Life Technologies), and 0.1 mg/ml Normocin (Invivogen). Cultures were maintained at 5% 02 and supplemented with 20 ng/ml EGF and FGF semiweekly (R&D Systems, Minneapolis, Minn.). […] Mice were euthanized when tumors reached 1000 mm^3. […] Tumor cells used to establish both models were cultured in DMEM containing 10% FBS, penicillin/streptomycin (100 U/ml), and 0.1 mg/ml Normocin (Invivogen) in atmospheric oxygen.

CD200R = molecular target: T1, CD200R (Mus musculus, UniProt Q9ES57); settings: reportedly; cited from earlier work
T1 sequence (Q9ES57 26-326): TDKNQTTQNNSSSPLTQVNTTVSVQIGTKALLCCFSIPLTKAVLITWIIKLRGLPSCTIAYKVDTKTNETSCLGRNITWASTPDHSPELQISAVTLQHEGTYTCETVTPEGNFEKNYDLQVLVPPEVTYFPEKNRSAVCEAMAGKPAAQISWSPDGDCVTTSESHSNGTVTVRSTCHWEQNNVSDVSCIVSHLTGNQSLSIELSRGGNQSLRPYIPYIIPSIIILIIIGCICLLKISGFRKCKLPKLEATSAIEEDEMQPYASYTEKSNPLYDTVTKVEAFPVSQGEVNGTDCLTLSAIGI

NTIGDGGCY [Antagonist 6059]
CD200 induced arginase-I secretion [1]: blocked CD200 induced arginase-I secretion
CD200 induced MDSC expansion ([1]; pre-incubation with antagonist): significantly blocked CD200 induced MDSC expansion
Survival (EMT6 tumor bearing mice): results translated to a breast carcinoma (EMT6) model; also recorded: significantly extended survival benefit
Competition with CD200 for binding to CD200R (CD200R): outcompetes the intact CD200 protein for binding to the CD200R
